Data published in patent publication US20150259300A1, “4-(ORTHO)-FLUOROPHENYL-5-FLUOROPYRIMIDIN-2-YL AMINES CONTAINING A SULFONE GROUP” (BAYER PHARMA AKTIENGESELLSCHAFT, priority 2012, published 2015).

Legend:
[1] = target: T1, CDK9/CycT1 (Homo sapiens, UniProt P50750); test: CDK9/CycT1 kinase assay (TR-FRET, Method 1a); format: biochemical; settings: for IC50: Method 1a, 10 μM ATP; for Selectivity CDK9/CDK2: derived from Methods 1a. and 2.
T1 construct: Recombinant full-length His-tagged human CDK9 and CycT1; His; purchased Invitrogen PV4131; host or cells: insect cells
T1 sequence (P50750 whole entry): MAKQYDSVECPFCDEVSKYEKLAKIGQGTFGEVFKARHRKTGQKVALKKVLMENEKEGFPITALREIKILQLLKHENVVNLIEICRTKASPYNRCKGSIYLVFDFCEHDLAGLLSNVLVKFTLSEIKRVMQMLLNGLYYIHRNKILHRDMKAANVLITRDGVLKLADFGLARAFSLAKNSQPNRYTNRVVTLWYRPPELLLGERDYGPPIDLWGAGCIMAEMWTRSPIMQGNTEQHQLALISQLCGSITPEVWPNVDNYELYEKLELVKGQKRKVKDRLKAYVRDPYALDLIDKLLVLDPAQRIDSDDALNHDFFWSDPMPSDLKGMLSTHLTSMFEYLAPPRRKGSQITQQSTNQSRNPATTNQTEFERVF
T1 sequence (O60563 whole entry partner): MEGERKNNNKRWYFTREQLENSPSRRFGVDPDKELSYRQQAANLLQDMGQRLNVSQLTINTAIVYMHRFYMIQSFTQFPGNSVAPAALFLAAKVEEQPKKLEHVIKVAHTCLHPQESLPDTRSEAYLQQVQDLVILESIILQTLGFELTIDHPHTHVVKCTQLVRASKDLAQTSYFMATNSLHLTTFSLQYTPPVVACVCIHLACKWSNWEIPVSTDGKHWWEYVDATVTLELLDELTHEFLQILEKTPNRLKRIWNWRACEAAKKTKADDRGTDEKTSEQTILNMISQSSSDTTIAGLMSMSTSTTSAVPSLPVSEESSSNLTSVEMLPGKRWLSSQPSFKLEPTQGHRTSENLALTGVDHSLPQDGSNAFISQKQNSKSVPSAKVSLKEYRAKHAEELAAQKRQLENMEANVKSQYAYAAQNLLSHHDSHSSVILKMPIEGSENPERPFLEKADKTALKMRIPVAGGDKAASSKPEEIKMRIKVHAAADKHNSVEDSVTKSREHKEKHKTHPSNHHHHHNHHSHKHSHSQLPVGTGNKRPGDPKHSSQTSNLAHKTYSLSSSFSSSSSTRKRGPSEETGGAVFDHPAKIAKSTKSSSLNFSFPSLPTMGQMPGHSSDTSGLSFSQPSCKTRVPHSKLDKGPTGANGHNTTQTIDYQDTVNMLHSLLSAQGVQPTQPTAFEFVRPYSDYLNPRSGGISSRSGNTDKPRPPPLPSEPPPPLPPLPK
Excerpt: 1a. CDK9/CyeT1 Kinase Assay:
CDK9/CycT1-inhibitory activity of compounds of the present invention was quantified employing the CDK9/CycT1 TR-FRET assay as described in the following paragraphs:
Recombinant full-length His-tagged human CDK9 and CycT1, expressed in insect cells and purified by Ni-NTA affinity chromatography, were purchased from Invitrogen (Cat. No PV4131). As substrate for the kinase reaction biotinylated peptide biotin-Ttds-YISPLKSPYKISEG (C-terminus in amid form) was used which can be purchased e.g. form the company JERINI Peptide Technologies (Berlin, Germany). For the assay 50 nl of a 100 fold concentrated solution of the test compound in DMSO was pipetted into a black low volume 384 well microtiter plate (Greiner Bio-One, Frickenhausen, Germany), 2 μl of a solution of CDK9/CycT1 in aqueous assay buffer [50 mM Tris/HCl pH 8.0, 10 mM MgCl2, 1.0 mM dithiothreitol, 0.1 mM sodium ortho-vanadate, 0.01% (v/v) Nonidet-P40 (Sigma)] were added and the mixture was incubated for 15 min at 22° C. to allow pre-binding of the test compounds to the enzyme before the start of the kinase reaction. Then the kinase reaction was started by the addition of 3 μl of a solution of adenosine-tri-phosphate (ATP, 16.7 μM=>final conc. in the 5 μl assay volume is 10 μM) and substrate (1.67 μM=>final conc. in the 5 μl assay volume is 1 μM) in assay buffer and the resulting mixture was incubated for a reaction time of 25 min at 22° C. The concentration of CDK9/CycT1 was adjusted depending of the activity of the enzyme lot and was chosen appropriate to have the assay in the linear range, typical concentrations were in the range of 1 μg/ml. The reaction was stopped by the addition of 5 μl of a solution of TR-FRET detection reagents (0.2 μM streptavidine-XL665 [Cisbio Bioassays, Codolet, France] and 1 nM anti-RB(pSer807/pSer811)-antibody from BD Pharmingen [#558389] and 1.2 nM LANCE EU-W1024 labeled anti-mouse IgG antibody [Perkin-Elmer, product no. AD0077]) in an aqueous EDTA-solution (100 mM EDTA, 0.2% (w/v) bovine serum albumin in 100 mM HEPES/NaOH pH 7.0).
(§1) The resulting mixture was incubated 1 h at 22° C. to allow the formation of complex between the phosphorylated biotinylated peptide and the detection reagents. Subsequently the amount of phosphorylated substrate was evaluated by measurement of the resonance energy transfer from the Eu-chelate to the streptavidine-XL. Therefore, the fluorescence emissions at 620 nm and 665 nm after excitation at 350 nm was measured in a HTRF reader, e.g. a Rubystar (BMG Labtechnologies, Offenburg, Germany) or a Viewlux (Perkin-Elmer). The ratio of the emissions at 665 nm and at […] was taken as the measure for the amount of phosphorylated substrate. The data were normalised (enzyme reaction without inhibitor=0% inhibition, all other assay components but no enzyme=100% inhibition).

[2] = tested on: HeLa cells; test: Proliferation assay (crystal violet), HeLa; format: cell-based; settings: Homo sapiens, 96 h, 4 days, read-out: Inhibition of HeLa cell proliferation IC50
Method: Cultivated tumour cells (HeLa, human cervical tumour cells, ATCC CCL-2; NCI-H460, human non-small cell lung carcinoma cells, ATCC HTB-177; A2780, human ovarian carcinoma cells, ECACC #93112519; DU 145, hormone-independent human prostate carcinoma cells, ATCC HTB-81; HeLa-MaTu-ADR, multidrug-resistant human cervical carcinoma cells, EPO-GmbH Berlin; Caco-2, human colorectal carcinoma cells, ATCC HTB-37; B 16F10, mouse melanoma cells, ATCC CRL-6475) were plated at a density of 5,000 cells/well (DU145, HeLa-MaTu-ADR), 3,000 cells/well (NCI-H460, HeLa), 2,500 cells/well (A2780), 1,500 cells/well (Caco-2), or 1,000 cells/well (B16F10) in a 96-well multititer plate in 200 μL of their respective growth medium supplemented 10% fetal calf serum. After 24 hours, the cells of one plate (zero-point plate) were stained with crystal violet (see below), while the medium of the other plates was replaced by fresh culture medium (200 to which the test substances were added in various concentrations (0 μM, as well as in the range of 0.001-10 μM; the final concentration of the solvent dimethyl sulfoxide was 0.5%). The cells were incubated for 4 days in the presence of test substances. Cell proliferation was determined by staining the cells with crystal violet: the cells were fixed by adding 20 μl/measuring point of an 11% glutaric aldehyde solution for 15 minutes at room temperature. After three washing cycles of the fixed cells with water, the plates were dried at room temperature. The cells were stained by adding 100 μl/measuring point of a 0.1% crystal violet solution (pH 3.0). After three washing cycles of the stained cells with water, the plates were dried at room temperature. The dye was dissolved by adding 100 μl/measuring point of a 10% acetic acid solution. The extinction was determined by photometry at a wavelength of 595 nm. The change of cell number, in percent, was calculated by normalization of the measured values to the extinction values of the zero-point plate (=0%) and the extinction of the untreated (0 μm) cells (=100%). The IC50 values (inhibitory concentration at 50% of maximal effect) were determined by means of a 4 parameter fit.

[3] = target: T2, CDK2/CycE (Homo sapiens, UniProt P24941); test: CDK2/CycE kinase assay (TR-FRET, Method 2); format: biochemical; settings: Method 2, 10 μM ATP
T2 construct: GST; purchased ProQinase GmbH (Freiburg, Germany); host or cells: insect cells (Sf9)
Excerpt: 2. CDK2/CycE Kinase Assay:
CDK2/CycE -inhibitory activity of compounds of the present invention was quantified employing the CDK2/CycE TR-FRET assay as described in the following paragraphs:
Recombinant fusion proteins of GST and human CDK2 and of GST and human CycE, expressed in insect cells (Sf9) and purified by Glutathion-Sepharose affinity chromatography, were purchased from ProQinase GmbH (Freiburg, Germany). As substrate for the kinase reaction biotinylated peptide biotin-Ttds-YISPLKSPYKISEG (C-terminus in amid form) was used which can be purchased e.g. form the company JERINI Peptide Technologies (Berlin, Germany).
(§2) For the assay 50 nl of a 100 fold concentrated solution of the test compound in DMSO was pipetted into a black low volume 384 well microtiter plate (Greiner Bio-One, Frickenhausen, Germany), 2 μl of a solution of CDK2/CycE in aqueous assay buffer [50 mM Tris/HCl pH 8.0, 10 mM MgCl2, 1.0 mM dithiothreitol, 0.1 mM sodium ortho-vanadate, 0.01% (v/v) Nonidet-P40 (Sigma)] were added and the mixture was incubated for […] at 22° C. to allow pre-binding of the test compounds to the enzyme before the start of the kinase reaction. Then the kinase reaction was started by the addition of 3 μl of a solution of adenosine-tri-phosphate (ATP, 16.7 μM=>final conc. in the 5 μl assay volume is 10 μM) and substrate (1.25 μM=>final conc. in the 5 μl assay volume is 0.75 μM) in assay buffer and the resulting mixture was incubated for a reaction time of […] at 22° C. The concentration of CDK2/CycE was adjusted depending of the activity of the enzyme lot and was chosen appropriate to have the assay in the linear range, typical concentrations were in the range of 130 ng/ml. The reaction was stopped by the addition of 5 μl of a solution of TR-FRET detection reagents (0.2 μM streptavidine-XL665 [Cisbio Bioassays, Codolet, France] and 1 nM anti-RB(pSer807/pSer811)-antibody from BD Pharmingen [#558389] and 1.2 nM LANCE EU-W1024 labeled anti-mouse IgG antibody [Perkin-Elmer, product no. AD0077]) in an aqueous EDTA-solution (100 mM EDTA, 0.2% (w/v) bovine serum albumin in 100 mM HEPES/NaOH pH 7.0).
as §1, with “TR-FRET” for “HTRF”

[4] = target: T1, CDK9/CycT1; test: CDK9/CycT1 high ATP kinase assay (TR-FRET, Method 1b); format: biochemical; settings: 2 mM ATP
Method: 1b. CDK9/CyeT1 High ATP Kinase Assay
CDK9/CycT1-inhibitory activity of compounds of the present invention at a high ATP concentration after preincubation of enzyme and test compounds was quantified employing the CDK9/CycT1 TR-FRET assay as described in the following paragraphs.
Recombinant full-length His-tagged human CDK9 and CycT1, expressed in insect cells and purified by Ni-NTA affinity chromatography, were purchase from Invitrogen (Cat. No PV4131). As substrate for the kinase reaction biotinylated peptide biotin-Ttds-YISPLKSPYKISEG (C-terminus in amid form) was used which can be purchased e.g. form the company JERINI peptide technologies (Berlin, Germany).
as §2, with “of CDK9/CycT1” for “of CDK2/CycE”, “(ATP, 3.3 mM=>final conc. in the 5 μl assay volume is 2 mM) and substrate (1.67” for “(ATP, 16.7”, “is 1” for “is 10 μM) and substrate (1.25 μM=>final conc. in the 5 μl assay volume is 0.75”, “of 0.5” for “of 130”, “([…]” for “(0.2 μM”
as §1

| IC50 [1] [nM] | Selectivity CDK9/CDK2 [1] | IC50 [2] [nM] | IC50 [3] [nM] | IC50 [4] [nM] | Compound |
| --- | --- | --- | --- | --- | --- |
| 20 | >1000 | 1050 | > 20000 | – | CS(=O)(=O)Cc1cc(Nc2ncc(F)c(-c3ccc(F)cc3F)n2)cc(C(F)(F)F)c1 [Example 1, 4-(2,4-Difluorophenyl)-5-fluoro-N-{3-[(methylsulfonyl)methyl]-5-(trifluoromethyl)phenyl}pyrimidin-2-amine] |
| 40 | 8.9 | 2240 | 360 | – | CCS(=O)(=O)Cc1cccc(Nc2ncc(F)c(-c3ccc(F)cc3F)n2)c1 [Example 7, 4-(2,4-Difluorophenyl)-N-{3-[(ethylsulfonyl)methyl]phenyl}-5-fluoropyrimidin-2-amine] |
| – | – | 3000 | > 20000 | > 20000 | CCCS(=O)(=O)Cc1cc(F)cc(Nc2ncc(F)c(-c3cc(F)c(F)cc3F)n2)c1 [Example 14, 5-Fluoro-N-{3-fluoro-5-[(propylsulfonyl)methyl]phenyl}-4-(2,4,5-trifluorophenyl)pyrimidin-2-amine] |
